# pKi: −log10 of the molar value.
# Assays:
# [1] = target: Cyclin-dependent kinase 14 (Homo sapiens) (UniProt O94921); conditions: Compound concentration 1000.0 nM
# [2] = target: Discoidin domain-containing receptor 2 (Homo sapiens) (UniProt Q16832); conditions: Compound concentration 1000.0 nM
# [3] = target: Insulin receptor-related protein (Homo sapiens) (UniProt P14616); conditions: Compound concentration 1000.0 nM
# [4] = target: Histamine H2 receptor (Homo sapiens) (UniProt P25021); conditions: Compound concentration 10.0 uM
# [5] = target: Tyrosine-protein kinase Srms (Homo sapiens) (UniProt Q9H3Y6); conditions: Compound concentration 1000.0 nM
# [6] = target: Tyrosine-protein kinase Fer (Homo sapiens) (UniProt P16591); conditions: Compound concentration 1000.0 nM
# [7] = target: 5-hydroxytryptamine receptor 1A (Homo sapiens) (UniProt P08908); conditions: Compound concentration 10.0 uM
# [8] = target: Phosphorylase b kinase gamma catalytic chain, skeletal muscle/heart isoform (Homo sapiens) (UniProt Q16816); conditions: Compound concentration 1000.0 nM
# [9] = target: Cyclin-dependent kinase 15 (Homo sapiens) (UniProt Q96Q40); conditions: Compound concentration 1000.0 nM
# [10] = target: Serine/threonine-protein kinase 32A (Homo sapiens) (UniProt Q8WU08); conditions: Compound concentration 1000.0 nM
# [11] = target: Misshapen-like kinase 1 (Homo sapiens) (UniProt Q8N4C8); conditions: Compound concentration 1000.0 nM
# [12] = target: Serine/threonine-protein kinase 38-like (Homo sapiens) (UniProt Q9Y2H1); conditions: Compound concentration 1000.0 nM
# [13] = target: cGMP-dependent protein kinase 2 (Homo sapiens) (UniProt Q13237); conditions: Compound concentration 1000.0 nM
# [14] = target: BMP-2-inducible protein kinase (Homo sapiens) (UniProt Q9NSY1); conditions: Compound concentration 1000.0 nM
# [15] = target: Serine/threonine-protein kinase PAK 2 (Homo sapiens) (UniProt Q13177); conditions: Compound concentration 1000.0 nM
# [16] = target: Death-associated protein kinase 2 (Homo sapiens) (UniProt Q9UIK4); conditions: Compound concentration 1000.0 nM
# [17] = target: Serine/threonine-protein kinase Nek9 (Homo sapiens) (UniProt Q8TD19); conditions: Compound concentration 1000.0 nM
# [18] = target: Serine/threonine-protein kinase STK11 (Homo sapiens) (UniProt Q15831); conditions: Compound concentration 1000.0 nM
# [19] = target: Mitogen-activated protein kinase 4 (Homo sapiens) (UniProt P31152); conditions: Compound concentration 1000.0 nM
# [20] = target: 5-hydroxytryptamine receptor 1A (Homo sapiens, UniProt P08908); test: GPCRScan assay: inhibition of 5-HT1A; parameters: radioligand conc. used [nm] 0.5 – 1.0, parental cells stable CHO
# [21] = target: SRSF protein kinase 1 (Homo sapiens) (UniProt Q96SB4); conditions: Compound concentration 1000.0 nM
# [22] = target: Serine/threonine-protein kinase Chk1 (Homo sapiens) (UniProt O14757); conditions: Compound concentration 1000.0 nM
# [23] = target: 5-hydroxytryptamine receptor 2B (Homo sapiens) (UniProt P41595); conditions: Compound concentration 10.0 uM
# [24] = target: Serine/threonine-protein kinase Sgk2 (Homo sapiens) (UniProt Q9HBY8); conditions: Compound concentration 1000.0 nM
# [25] = target: Serine/threonine-protein kinase 17A (Homo sapiens) (UniProt Q9UEE5); conditions: Compound concentration 1000.0 nM
# [26] = target: ALK tyrosine kinase receptor (Homo sapiens) (UniProt Q9UM73); conditions: Compound concentration 1000.0 nM
# [27] = system: Tyrosine-protein kinase ABL1 (Homo sapiens), P00519 [F317L]; conditions: Compound concentration 1000.0 nM
# [28] = target: Serine/threonine-protein kinase TAO1 (Homo sapiens) (UniProt Q7L7X3); conditions: Compound concentration 1000.0 nM
# [29] = system: Phosphatidylinositol 4,5-bisphosphate 3-kinase catalytic subunit alpha isoform (Homo sapiens), P42336 [Q546K]; conditions: Compound concentration 1000.0 nM
# [30] = target: Mitogen-activated protein kinase 14 (Homo sapiens) (UniProt Q16539); conditions: Compound concentration 1000.0 nM
# [31] = target: Serine/threonine-protein kinase PLK3 (Homo sapiens) (UniProt Q9H4B4); conditions: Compound concentration 1000.0 nM
# [32] = target: Muscarinic acetylcholine receptor M4 (Homo sapiens) (UniProt P08173); conditions: Compound concentration 10.0 uM
# [33] = target: Beta-3 adrenergic receptor (Homo sapiens) (UniProt P13945); conditions: Compound concentration 10.0 uM
# [34] = target: Aurora kinase B (Homo sapiens) (UniProt Q96GD4); conditions: Compound concentration 1000.0 nM
# [35] = target: MAP kinase-interacting serine/threonine-protein kinase 2 (Homo sapiens) (UniProt Q9HBH9); conditions: Compound concentration 1000.0 nM
# [36] = target: Serine/threonine-protein kinase ULK1 (Homo sapiens) (UniProt O75385); conditions: Compound concentration 1000.0 nM
# [37] = system: Tyrosine-protein kinase ABL1 (Homo sapiens), P00519 [T315I]; conditions: Compound concentration 1000.0 nM
# [38] = target: Inhibitor of nuclear factor kappa-B kinase subunit beta (Homo sapiens) (UniProt O14920); conditions: Compound concentration 1000.0 nM
# [39] = target: Mu-type opioid receptor (Homo sapiens) (UniProt P35372); conditions: Compound concentration 10.0 uM
# [40] = target: Rhodopsin kinase GRK1 (Homo sapiens) (UniProt Q15835); conditions: Compound concentration 1000.0 nM
# [41] = system: Mast/stem cell growth factor receptor Kit (Homo sapiens), P10721 [L576P]; conditions: Compound concentration 1000.0 nM
# [42] = target: Casein kinase I isoform alpha (Homo sapiens) (UniProt P48729); conditions: Compound concentration 1000.0 nM
# [43] = target: Serine/threonine-protein kinase Chk2 (Homo sapiens) (UniProt O96017); conditions: Compound concentration 1000.0 nM
# [44] = target: Mitotic checkpoint serine/threonine-protein kinase BUB1 (Homo sapiens) (UniProt O43683); conditions: Compound concentration 1000.0 nM
# [45] = target: Serine/threonine-protein kinase PknB (Mycobacterium tuberculosis) (UniProt P9WI81); conditions: Compound concentration 1000.0 nM
# Sequence of 5-hydroxytryptamine receptor 1A (P08908 whole entry): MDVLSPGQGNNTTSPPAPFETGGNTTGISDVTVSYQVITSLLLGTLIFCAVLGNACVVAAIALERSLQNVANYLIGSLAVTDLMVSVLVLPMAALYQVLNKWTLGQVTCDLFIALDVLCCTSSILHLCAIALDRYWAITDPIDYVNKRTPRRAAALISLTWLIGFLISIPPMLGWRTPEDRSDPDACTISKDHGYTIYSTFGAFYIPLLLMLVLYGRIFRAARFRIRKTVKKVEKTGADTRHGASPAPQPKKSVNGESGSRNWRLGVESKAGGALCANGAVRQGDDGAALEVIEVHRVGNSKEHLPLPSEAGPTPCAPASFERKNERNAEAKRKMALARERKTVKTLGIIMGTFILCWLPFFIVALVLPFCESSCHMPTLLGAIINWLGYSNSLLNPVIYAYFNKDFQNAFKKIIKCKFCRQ
# Sequence of Muscarinic acetylcholine receptor M4 (Homo sapiens) (P08173 whole entry): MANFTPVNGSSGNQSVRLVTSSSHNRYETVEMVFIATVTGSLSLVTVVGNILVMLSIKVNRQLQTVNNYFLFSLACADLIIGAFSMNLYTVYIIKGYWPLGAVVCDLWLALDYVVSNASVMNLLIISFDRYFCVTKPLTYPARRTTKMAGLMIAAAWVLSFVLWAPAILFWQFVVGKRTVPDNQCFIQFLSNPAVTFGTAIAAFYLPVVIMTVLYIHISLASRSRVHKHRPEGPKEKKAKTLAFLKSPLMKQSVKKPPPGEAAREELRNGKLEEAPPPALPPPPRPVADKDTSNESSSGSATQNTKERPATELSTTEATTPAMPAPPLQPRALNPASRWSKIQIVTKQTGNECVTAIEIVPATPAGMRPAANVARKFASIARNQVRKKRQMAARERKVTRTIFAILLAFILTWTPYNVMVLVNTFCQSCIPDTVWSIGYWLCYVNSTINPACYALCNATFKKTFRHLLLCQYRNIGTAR
# Sequence of Tyrosine-protein kinase Fer (Homo sapiens) (P16591 whole entry, looked up): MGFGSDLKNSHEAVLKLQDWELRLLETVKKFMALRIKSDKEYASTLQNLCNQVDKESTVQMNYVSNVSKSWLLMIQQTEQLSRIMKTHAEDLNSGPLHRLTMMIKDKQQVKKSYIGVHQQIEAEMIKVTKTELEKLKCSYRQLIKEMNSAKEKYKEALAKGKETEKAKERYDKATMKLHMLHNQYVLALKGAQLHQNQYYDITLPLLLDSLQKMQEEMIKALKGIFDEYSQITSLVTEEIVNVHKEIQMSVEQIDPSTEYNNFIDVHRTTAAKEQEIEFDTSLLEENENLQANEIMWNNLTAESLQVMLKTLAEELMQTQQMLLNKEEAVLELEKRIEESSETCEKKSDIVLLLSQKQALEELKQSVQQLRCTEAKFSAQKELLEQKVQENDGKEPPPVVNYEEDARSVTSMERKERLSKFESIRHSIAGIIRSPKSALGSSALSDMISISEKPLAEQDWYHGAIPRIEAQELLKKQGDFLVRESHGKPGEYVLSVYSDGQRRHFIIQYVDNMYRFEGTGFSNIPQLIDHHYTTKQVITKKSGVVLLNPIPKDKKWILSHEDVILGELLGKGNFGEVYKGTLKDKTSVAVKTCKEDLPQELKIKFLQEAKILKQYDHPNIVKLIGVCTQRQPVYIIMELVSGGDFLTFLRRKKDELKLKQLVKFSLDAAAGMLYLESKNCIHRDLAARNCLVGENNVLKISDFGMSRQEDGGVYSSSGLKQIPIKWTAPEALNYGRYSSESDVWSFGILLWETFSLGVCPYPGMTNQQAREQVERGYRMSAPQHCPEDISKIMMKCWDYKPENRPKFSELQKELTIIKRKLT
# Sequence of Phosphatidylinositol 4,5-bisphosphate 3-kinase catalytic subunit alpha isoform (Homo sapiens), P42336 [Q546K] (P42336 whole entry Q546K, canonical isoform): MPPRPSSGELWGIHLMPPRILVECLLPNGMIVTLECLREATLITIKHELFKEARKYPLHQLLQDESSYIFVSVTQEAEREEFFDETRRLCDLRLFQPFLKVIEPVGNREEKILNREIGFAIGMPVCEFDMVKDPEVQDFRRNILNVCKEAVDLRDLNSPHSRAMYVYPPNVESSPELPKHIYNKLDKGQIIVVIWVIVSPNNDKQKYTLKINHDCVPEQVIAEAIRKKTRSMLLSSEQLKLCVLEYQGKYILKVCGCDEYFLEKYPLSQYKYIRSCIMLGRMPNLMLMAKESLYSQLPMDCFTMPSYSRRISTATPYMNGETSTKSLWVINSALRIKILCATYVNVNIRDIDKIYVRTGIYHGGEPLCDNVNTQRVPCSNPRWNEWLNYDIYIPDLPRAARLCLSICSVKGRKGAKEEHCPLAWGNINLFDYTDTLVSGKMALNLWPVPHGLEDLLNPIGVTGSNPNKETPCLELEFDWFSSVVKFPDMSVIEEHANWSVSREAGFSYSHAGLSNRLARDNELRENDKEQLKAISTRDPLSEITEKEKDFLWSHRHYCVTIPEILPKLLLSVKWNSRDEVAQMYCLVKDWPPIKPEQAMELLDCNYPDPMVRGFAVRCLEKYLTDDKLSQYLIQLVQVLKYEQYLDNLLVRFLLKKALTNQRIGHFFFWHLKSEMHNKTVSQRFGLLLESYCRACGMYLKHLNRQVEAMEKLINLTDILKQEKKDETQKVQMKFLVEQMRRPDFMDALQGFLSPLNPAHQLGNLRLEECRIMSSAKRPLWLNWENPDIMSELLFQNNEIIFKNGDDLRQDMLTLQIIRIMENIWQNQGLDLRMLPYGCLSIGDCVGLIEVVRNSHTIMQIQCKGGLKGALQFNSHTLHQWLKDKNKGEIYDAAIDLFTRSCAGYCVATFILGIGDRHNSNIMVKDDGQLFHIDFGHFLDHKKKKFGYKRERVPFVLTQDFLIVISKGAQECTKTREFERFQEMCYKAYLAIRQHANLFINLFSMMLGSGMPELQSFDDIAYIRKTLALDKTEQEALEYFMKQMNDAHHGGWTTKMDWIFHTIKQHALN
# Sequence of 5-hydroxytryptamine receptor 1A (Homo sapiens) (P08908 whole entry, canonical isoform): as the sequence (P08908 whole entry) above
# Sequence of Inhibitor of nuclear factor kappa-B kinase subunit beta (Homo sapiens) (O14920 whole entry): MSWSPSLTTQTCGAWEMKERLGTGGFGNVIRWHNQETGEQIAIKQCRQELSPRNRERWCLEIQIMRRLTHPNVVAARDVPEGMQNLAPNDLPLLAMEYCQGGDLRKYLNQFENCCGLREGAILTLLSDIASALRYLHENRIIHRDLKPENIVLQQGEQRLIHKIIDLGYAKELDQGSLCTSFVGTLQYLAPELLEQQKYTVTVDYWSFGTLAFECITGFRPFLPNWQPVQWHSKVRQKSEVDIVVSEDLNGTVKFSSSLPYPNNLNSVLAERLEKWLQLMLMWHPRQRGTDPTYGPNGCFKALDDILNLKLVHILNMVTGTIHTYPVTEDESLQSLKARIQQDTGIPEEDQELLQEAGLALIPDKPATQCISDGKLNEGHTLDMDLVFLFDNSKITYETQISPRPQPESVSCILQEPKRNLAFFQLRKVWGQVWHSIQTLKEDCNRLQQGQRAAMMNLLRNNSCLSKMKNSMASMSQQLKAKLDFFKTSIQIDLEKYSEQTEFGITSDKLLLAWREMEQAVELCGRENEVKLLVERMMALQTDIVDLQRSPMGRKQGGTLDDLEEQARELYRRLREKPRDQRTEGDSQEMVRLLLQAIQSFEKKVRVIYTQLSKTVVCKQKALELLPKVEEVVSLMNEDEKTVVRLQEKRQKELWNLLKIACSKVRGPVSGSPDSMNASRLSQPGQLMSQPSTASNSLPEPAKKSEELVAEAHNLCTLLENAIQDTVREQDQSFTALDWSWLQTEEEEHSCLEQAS
# Sequence of SRSF protein kinase 1 (Homo sapiens) (Q96SB4 whole entry): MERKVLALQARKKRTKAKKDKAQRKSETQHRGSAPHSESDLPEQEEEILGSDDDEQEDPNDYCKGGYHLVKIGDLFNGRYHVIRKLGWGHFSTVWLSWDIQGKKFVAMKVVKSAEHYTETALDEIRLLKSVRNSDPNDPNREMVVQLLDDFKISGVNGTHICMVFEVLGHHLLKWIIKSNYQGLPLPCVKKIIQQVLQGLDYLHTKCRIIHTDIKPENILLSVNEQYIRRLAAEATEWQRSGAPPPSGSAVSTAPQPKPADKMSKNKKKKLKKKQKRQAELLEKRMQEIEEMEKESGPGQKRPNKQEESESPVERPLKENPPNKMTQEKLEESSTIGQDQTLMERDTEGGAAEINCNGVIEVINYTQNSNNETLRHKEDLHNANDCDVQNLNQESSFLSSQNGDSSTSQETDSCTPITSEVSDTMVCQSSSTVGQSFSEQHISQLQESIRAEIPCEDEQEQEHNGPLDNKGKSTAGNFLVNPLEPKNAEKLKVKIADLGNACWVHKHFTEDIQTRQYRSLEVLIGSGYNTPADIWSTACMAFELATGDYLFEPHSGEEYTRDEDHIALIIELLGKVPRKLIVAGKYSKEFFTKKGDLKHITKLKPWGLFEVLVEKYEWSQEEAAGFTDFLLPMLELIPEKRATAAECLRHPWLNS
# Sequence of Mitogen-activated protein kinase 4 (Homo sapiens) (P31152 whole entry): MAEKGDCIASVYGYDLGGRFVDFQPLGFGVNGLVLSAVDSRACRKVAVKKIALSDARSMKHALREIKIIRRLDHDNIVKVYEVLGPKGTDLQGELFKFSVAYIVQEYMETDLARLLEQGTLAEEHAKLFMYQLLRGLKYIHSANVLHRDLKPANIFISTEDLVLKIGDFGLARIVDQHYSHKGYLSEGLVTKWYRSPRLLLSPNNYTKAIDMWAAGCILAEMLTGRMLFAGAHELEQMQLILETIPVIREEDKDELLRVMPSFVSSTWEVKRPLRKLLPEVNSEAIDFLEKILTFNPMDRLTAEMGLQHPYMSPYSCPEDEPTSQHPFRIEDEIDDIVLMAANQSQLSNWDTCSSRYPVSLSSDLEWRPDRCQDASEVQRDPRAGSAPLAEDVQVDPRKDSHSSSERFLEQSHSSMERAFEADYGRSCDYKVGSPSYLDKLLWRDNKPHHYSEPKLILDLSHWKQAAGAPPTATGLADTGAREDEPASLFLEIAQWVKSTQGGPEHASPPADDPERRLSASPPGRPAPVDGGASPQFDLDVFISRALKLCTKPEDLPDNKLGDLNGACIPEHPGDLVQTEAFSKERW
compound,measurement,setting,value
CC(=O)C1=C(C)N(c2cccc(C(F)(F)F)c2)C(=O)N[C@@H]1c1ccc(C#N)nc1 [BAY-678],residual activity,[1],91.7%
same,residual activity,[2],87.6%
same,residual activity,[3],99.6%
same,inhibition,[4],14.5%
same,residual activity,[5],97.9%
same,residual activity,[6],96.9%
same,inhibition,[7],50%
same,residual activity,[8],100%
same,residual activity,[9],100%
same,residual activity,[10],100%
same,residual activity,[11],100%
same,residual activity,[12],93.6%
same,residual activity,[13],100%
same,residual activity,[14],100%
same,residual activity,[15],98.2%
same,residual activity,[16],79.2%
same,residual activity,[17],100%
same,residual activity,[18],72.8%
same,residual activity,[19],100%
same,pKi,[20]; read-out: Ki,5.30
same,Ki,[20]; read-out: pKi (converted),4.9 µM
same,residual activity,[21],67.5%
same,residual activity,[22],73.2%
same,inhibition,[23],6.06%
same,residual activity,[24],100%
same,residual activity,[25],93.7%
same,residual activity,[26],100%
same,residual activity,[27],97.1%
same,residual activity,[28],100%
same,residual activity,[29],100%
same,residual activity,[30],100%
same,residual activity,[31],84.2%
same,inhibition,[32],-6.72%
same,inhibition,[33],-0.551%
same,residual activity,[34],100%
same,residual activity,[35],84.8%
same,residual activity,[36],100%
same,residual activity,[37],100%
same,residual activity,[38],100%
same,inhibition,[39],-5.41%
same,residual activity,[40],99.2%
same,residual activity,[41],100%
same,residual activity,[42],91.5%
same,residual activity,[43],85.6%
same,residual activity,[44],100%
same,residual activity,[45],82.7%

# From ChEMBL document CHEMBL4507272 (2021)
